According to the CheMixHub ionic liquid set:

Test: xn = mol fraction of the nth substance listed

CCCCCCCCCC(=O)[O-].CCCCCCCCCCCCCC[P+](CCCCCC)(CCCCCC)CCCCCC + O
Settings	viscosity [mPa·s]
358.15 K, 100 kPa, x2 = 0.872	9.345

CCCCCC[n+]1ccccc1.N#C[N-]C#N + O
100 kPa
Settings	electrical conductivity [S/m]	viscosity [mPa·s]
298.15 K, x1 = 0.9308	–	50.4
298.15 K, x1 = 0.9582	0.494	–
298.15 K, x1 = 0.9762	0.477	–
298.15 K, x2 = 0.01463	–	56.3
303.15 K, x1 = 0.9663	–	43.33
308.15 K, x1 = 0.924	0.796	–
318.15 K, x1 = 0.9146	–	22.52
318.15 K, x1 = 0.9409	1.09	–
318.15 K, x1 = 0.9663	–	24.43
328.15 K, x1 = 0.9146	–	15.96
328.15 K, x1 = 0.924	1.47	–
328.15 K, x1 = 0.9487	–	16.85
328.15 K, x1 = 0.9762	1.35	–
338.15 K, x1 = 0.9075	1.94	–
338.15 K, x1 = 0.9146	–	12.16
338.15 K, x1 = 0.9409	1.85	–
338.15 K, x2 = 0.01463	–	13.8

CCCC[n+]1ccc(C)cc1.N#C[S-] + O
101 kPa
Settings	viscosity [mPa·s]
298.15 K, x2 = 0.0564	74.9
298.15 K, x2 = 0.9714	1.58
308.15 K, x2 = 0.6364	10.02
308.15 K, x2 = 0.9714	1.24
318.15 K, x1 = 0.0076	0.73
318.15 K, x2 = 0	33.9
318.15 K, x2 = 0.9714	1.01
328.15 K, x2 = 0.9028	1.71
328.15 K, x2 = 0.957	1.01
328.15 K, x2 = 0.9714	0.84
338.15 K, x2 = 0	17.3
338.15 K, x2 = 0.1655	12.9
338.15 K, x2 = 0.3797	8.38
338.15 K, x2 = 0.4628	7.17
338.15 K, x2 = 0.5669	5.54
338.15 K, x2 = 0.7623	2.94
338.15 K, x2 = 0.9714	0.73
348.15 K, x2 = 0.1655	9.89
348.15 K, x2 = 0.5669	4.45
348.15 K, x2 = 0.957	0.75

CCCC[n+]1cccc(C)c1.N#C[N-]C#N + O
298.15 K, 101 kPa
Settings	electrical conductivity [S/m]
x1 = 0.0001676	0.072
x1 = 0.0003333	0.132
x1 = 0.0004971	0.18
x1 = 0.0007203	0.265
x1 = 0.0009901	0.347
x1 = 0.001245	0.42
x1 = 0.001513	0.502
x1 = 0.001757	0.558
x1 = 0.002014	0.629
x1 = 0.002115	0.655
x1 = 0.002344	0.698
x1 = 0.002438	0.725
x1 = 0.002706	0.785
x1 = 0.002941	0.824
x1 = 0.00295	0.83
x1 = 0.00329	0.889
x1 = 0.003543	0.944
